Measured values from patent US7199286B2, “Plant-derived novel pathogen and SAR-induction chemical induced promoters, and fragments thereof” (Syngenta Participations AG, priority 1999, dated 2007).

System: NI16 promoter fragment 274 bp
Experiment: GUS florescence assay of promoter::GUS plants after SA application, NI16 274 bp fragment
Format: in vivo, Arabidopsis
Conditions: 5 mM SA spray
Description: A binary promoter::reporter plasmid (pNOV2374) for Arabidopsis transformation was constructed. The regulatory/promoter sequence was fused to the GUS reporter gene (Jefferson et al. (1987) EMBO J 6: 3901-3907) by recombination using […] Technology according to the manufacturer's protocol as described in the Instruction Manual (LifeTechnologies, Rockville, Md.). The construct was then transformed into Agrobacterium tumefaciens strains by electroporation. pNOV2374 is a binary vector with a VS1 origin of replication, a copy of the Agrobacterium virg gene in the backbone, and a Basta® resistance selectable marker cassette between the left and right border sequences of the T-DNA. The Basta® selectable marker cassette comprises the Agrobacterium tumefaciens manopine synthase promoter (AtMas) (Barker et al., Plant Mol. Biol. 2, 335-350 (1983)) operably linked to the gene encoding Basta® resistance (i.e., the “BAR” gene, phosphinothricin acetyl transferase) (White et al., Nucl Acids Res 18: 1062 (1990)) and the 35S terminator. The AtMas promoter, the BAR coding sequence, and the 35S terminator are located at nt 4211 to nt 4679, nt 4680 to nt 5228, and nt 5263 to nt 5488, respectively, of pNOV2374. The vector contains […] recombination components, which were introduced into the binary vector backbone by ligating a blunt-ended cassette containing attR sites, ccdB, and a cholramphenicol resistance marker using the […] Vector Conversion System (LifeTechnologies, Rockville, Md.). The […] cassette was located between nt 126 and 1818 of pNOV2374. The promoter cassettes were inserted through an LR recombination reaction whereby the DNA sequence of pNOV2374 between nt 126 and nt 1818 were removed and replaced with the promoter of interest flanked by att sequences. […] The GIG gene (SEQ ID NO:29) contains the ST-LS1 intron from Solanum tuberosum at nt 385 to nt 576 of GUS (obtained from Dr. Stanton […], Purdue University, and described in Narasimhulu, et al. (1996) Plant Cell 8: 873-886.). […] The treatment was applied as a fine mist to the leaves. […] For quantitative analysis of promoter activity following induction treatments or in various Arabidopsis tissues and organs, GUS expression is measured florometrically. Tissue samples were harvested and ground in ice cold GUS extraction buffer (50 mM Na2HPO4 pH 7.0, 5 mM DTT, 1 mM Na2EDTA, 0.1% TritonX100, 0.1% sarcosyl). Ground samples were spun in a microfuge at 10,000 rpm for 15 minutes at 4° C. Following centrifugation, the supernatant was removed for the GUS assay and for a protein concentration determination. To measure GUS activity, the plant extract was assayed in GUS assay buffer (50 mM Na2HPO4 pH 7.0, 5 mM DTT, 1 mM Na2EDTA, 0.1% TritonX100, 0.1% sarcosyl, 1 mM 4-Methylumbelliferyl-beta-D-glucuronic acid dihydrate (MUG)), pre-warmed to 37° C. Reactions were incubated, and 100 uL aliquots were removed at 10 minute intervals over 30 minutes to stop the reaction by adding the 100 uL aliquots to tubes containing 900 uL of 2% Na2CO3. The stopped reactions were then read on a Tecan Spectroflourometer at 365 nm excitation and 455 emission wavelengths. Protein concentrations were determined using the BCA assay following the manufacturer's protocol. GUS activity is expressed as pmol MU/mg protein/min.

O=C(O)c1ccccc1O [SA, salicylic acid]
GUS Activity Induced by SA (2 h): 27.5 pmol/mg protein/min | GUS activity Fold-change relative to T0 (uninduced) (2 h): 1.4 fold | GUS Activity Induced by SA (4 h): 58.7 pmol/mg protein/min | GUS activity Fold-change relative to T0 (uninduced) (4 h): 3.0 fold | GUS Activity Induced by SA (8 h): 150.8 pmol/mg protein/min | GUS activity Fold-change relative to T0 (uninduced) (8 h): 7.8 fold | GUS Activity Induced by SA (24 h): 230.3 pmol/mg protein/min
